# Key:
# [1] = tested on: SKOV-3 ovarian cancer xenografts; experiment: Size effect on biodistribution, NIR imaging, xenograft model II; set-up: species or system nude mice; conditions: in vivo NIR imaging
# Experimental: To study the effects of particle size on the in vivo biodistribution of nanoparticles, the same concentration of DiD (a hydrophobic near infra-red (NIR) cyanine dye, 1 mg/mL) was co-loaded with PTX (4 mg/mL, 4 mg/mL and 3 mg/mL, respectively) into 20 mg/mL micelle solutions of PEG^2000-CA4, PEG^5000-CA8 and PEG^3000-CA4, to form three fluorescence labeled micelle preparations with distinct sizes of 17 nm, 64 nm and 154 nm, respectively (FIG. 35A). Each of these three sizes of DiD-loaded micelles was incubated with Raw 264.7 macrophage cells for 2 h. The cells were then washed three times with PBS, fixed with 70% ethanol and observed under confocal fluorescence microscope. […] NIR fluorescent imaging was used to evaluate the in vivo biodistribution of the three micelles with different sizes in nude mice bearing the SKOV-3 ovarian cancer xenografts (subcutaneous and intraperitoneal implants). The mice were injected via the tail vein with the same volume of the above three PTX-DiD loaded micelle preparations in PBS. Ex vivo imaging of the excised organs and tumors were performed at 24 h after injection. […] The in vivo NIR images of a tumor bearing mouse treated with the DiD-PTX-PEG^5000CA8 was recorded over time (FIG. 35D). The accumulation of the DiD loaded micelles at the tumor site via the EPR effect began at 2 h after injection and continued to increase over the 24 h period.
# [2] = tested on: intraperitoneal SKOV3-luc ovarian tumor; experiment: Biodistribution after i.p. injection, xenograft model III; format: in vivo, mice; conditions: up to 72 h
# Experimental: PEG^5000-CA8 (polymer 7) nanoparticles biodistribution after i.p. injection in intraperitoneal SKOV3-luc ovarian tumor bearing mice was investigated. Mice were injected i.p. with free DiD or DiD-loaded PEG^5000-CA8 nanoparticles. […] At 72 h, the peritoneal cavity was exposed and scanned with the Kodak imaging station, displaying DiD-labeled PEG^5000-CA8 nanoparticles localization on the surface of peritoneal tumor nodules (FIGS. 38A-38B).
smiles,measurement,setting,value
"CCCCCCCCCCCCCCCCCCN1C(=CC=CC=CC2=[N+](CCCCCCCCCCCCCCCCCC)c3ccccc3C2(C)C)C(C)(C)c2ccccc21.[O-][Cl+3]([O-])([O-])[O-] [DiD, 1,1′-dioctadecyl-3,3,3′,3′-tetramethylindo-dicarbocyanine perchlorate]",tumor targeting,[1],no tumor targeting was found
same,fluorescence distribution after i.p. injection,[2],declined to a level not distinguishable from background auto-fluorescence at 72 h
